According to the supplement of paper PMC10307832:

Key:
Test in all cases: relative viability (nuclei count vs DMSO), 5 days (fraction); higher = more cells survive
Veliparib + Luminespib = compound: C[C@]1(c2nc3c(C(N)=O)cccc3[nH]2)CCCN1 [Veliparib] + CCNC(=O)c1noc(-c2cc(C(C)C)c(O)cc2O)c1-c1ccc(CN2CCOCC2)cc1 [Luminespib] (partner 0.01 µM)
In short: (§1)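 Dosing by pin tool came one day after lung cancer cell lines were seeded in 1536-well plates, using either one drug or a fixed anchor-drug dose plus five library-drug doses (not always all listed) in √10 steps. After 5 days, nuclei were counted on 4× images. Relative viability is treated-well nuclei count divided by vehicle-well nuclei count, and values are medians of duplicate plates.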

[1] = compound: COC1=CC=C(C=C1)CN2C=CC3=C2C=C(C=C3)C(=O)NO + CS(=O)(=O)CCNCc1ccc(-c2ccc3ncnc(Nc4ccc(OCc5cccc(F)c5)c(Cl)c4)c3c2)o1 [Lapatinib] (partner 2 µM)
In short: as §1

[2] = compound: COC1=CC=C(C=C1)CN2C=CC3=C2C=C(C=C3)C(=O)NO + CC1(C)CCC(c2ccc(Cl)cc2)=C(CN2CCN(c3ccc(C(=O)NS(=O)(=O)c4ccc(N[C@H](CCN5CCOCC5)CSc5ccccc5)c(S(=O)(=O)C(F)(F)F)c4)cc3)CC2)C1 [Navitoclax] (partner 0.5 µM)
In short: as §1

Veliparib + Dasatinib = compound: C[C@]1(c2nc3c(C(N)=O)cccc3[nH]2)CCCN1 [Veliparib] + Cc1nc(Nc2ncc(C(=O)Nc3c(C)cccc3Cl)s2)cc(N2CCN(CCO)CC2)n1 [Dasatinib] (partner 0.075 µM)
In short: as §1

Cell Line: HARA
- relative viability (Veliparib + Luminespib; first compound 0.02 µM): 0.82
- relative viability (Veliparib + Luminespib; first compound 0.06325 µM): 0.778
- relative viability (Veliparib + Luminespib; first compound 0.2 µM): 0.782
- relative viability (Veliparib + Luminespib; first compound 0.6325 µM): 0.639
- relative viability (Veliparib + Luminespib; first compound 2 µM): 0.416
- relative viability ([1]; first compound 0.08 µM): 0.424
- relative viability ([1]; first compound 0.253 µM): 0.891
- relative viability ([1]; first compound 0.8 µM): 0.815
- relative viability ([1]; first compound 2.53 µM): 0.712
- relative viability ([1]; first compound 8 µM): 0.679
- relative viability ([2]; first compound 0.08 µM): 0.479
- relative viability ([2]; first compound 0.253 µM): 1.1
- relative viability ([2]; first compound 0.8 µM): 1.13
- relative viability ([2]; first compound 2.53 µM): 1.17
- relative viability ([2]; first compound 8 µM): 1.14
- relative viability (Veliparib + Dasatinib; first compound 0.02 µM): 0.254
- relative viability (Veliparib + Dasatinib; first compound 0.06325 µM): 0.383
- relative viability (Veliparib + Dasatinib; first compound 0.2 µM): 0.294
- relative viability (Veliparib + Dasatinib; first compound 0.6325 µM): 0.231
- relative viability (Veliparib + Dasatinib; first compound 2 µM): 0.267

Cell Line: NCI-H1993
- relative viability (Veliparib + Luminespib; first compound 0.02 µM): 0.713
- relative viability (Veliparib + Luminespib; first compound 0.06325 µM): 0.675
- relative viability (Veliparib + Luminespib; first compound 0.2 µM): 0.968
- relative viability (Veliparib + Luminespib; first compound 0.6325 µM): 0.64
- relative viability (Veliparib + Luminespib; first compound 2 µM): 0.895
- relative viability ([1]; first compound 0.08 µM): 0.639
- relative viability ([1]; first compound 0.253 µM): 0.857
- relative viability ([1]; first compound 0.8 µM): 0.843
- relative viability ([1]; first compound 2.53 µM): 0.864
- relative viability ([1]; first compound 8 µM): 0.741
- relative viability ([2]; first compound 0.08 µM): 0.68
- relative viability ([2]; first compound 0.253 µM): 1.02
- relative viability ([2]; first compound 0.8 µM): 1.04
- relative viability ([2]; first compound 2.53 µM): 1.09
- relative viability ([2]; first compound 8 µM): 0.991
- relative viability (Veliparib + Dasatinib; first compound 0.02 µM): 0.496
- relative viability (Veliparib + Dasatinib; first compound 0.06325 µM): 0.571
- relative viability (Veliparib + Dasatinib; first compound 0.2 µM): 0.537
- relative viability (Veliparib + Dasatinib; first compound 0.6325 µM): 0.64
- relative viability (Veliparib + Dasatinib; first compound 2 µM): 0.522

Cell Line: SK-MES-1
- relative viability (Veliparib + Luminespib; first compound 0.02 µM): 0.827
- relative viability (Veliparib + Luminespib; first compound 0.06325 µM): 0.467
- relative viability (Veliparib + Luminespib; first compound 0.2 µM): 0.897
- relative viability (Veliparib + Luminespib; first compound 0.6325 µM): 0.735
- relative viability (Veliparib + Luminespib; first compound 2 µM): 0.898
- relative viability ([1]; first compound 0.08 µM): 0.473
- relative viability ([1]; first compound 0.253 µM): 0.519
- relative viability ([1]; first compound 0.8 µM): 0.534
- relative viability ([1]; first compound 2.53 µM): 0.497
- relative viability ([1]; first compound 8 µM): 0.446
- relative viability ([2]; first compound 0.08 µM): 1.2
- relative viability ([2]; first compound 0.253 µM): 1.3
- relative viability ([2]; first compound 0.8 µM): 1.26
- relative viability ([2]; first compound 2.53 µM): 1.2
- relative viability ([2]; first compound 8 µM): 1.02
- relative viability (Veliparib + Dasatinib; first compound 0.02 µM): 0.39
- relative viability (Veliparib + Dasatinib; first compound 0.06325 µM): 0.34
- relative viability (Veliparib + Dasatinib; first compound 0.2 µM): 0.432
- relative viability (Veliparib + Dasatinib; first compound 0.6325 µM): 0.397
- relative viability (Veliparib + Dasatinib; first compound 2 µM): 0.484

Cell Line: NCI-H2023
- relative viability (Veliparib + Luminespib; first compound 0.02 µM): 0.746
- relative viability (Veliparib + Luminespib; first compound 0.06325 µM): 0.738
- relative viability (Veliparib + Luminespib; first compound 0.2 µM): 0.696
- relative viability (Veliparib + Luminespib; first compound 0.6325 µM): 0.73
- relative viability (Veliparib + Luminespib; first compound 2 µM): 0.73
- relative viability ([1]; first compound 0.08 µM): 0.155
- relative viability ([1]; first compound 0.253 µM): 0.792
- relative viability ([1]; first compound 0.8 µM): 0.784
- relative viability ([1]; first compound 2.53 µM): 0.864
- relative viability ([1]; first compound 8 µM): 0.601
- relative viability ([2]; first compound 0.08 µM): 0.94
- relative viability ([2]; first compound 0.253 µM): 1.07
- relative viability ([2]; first compound 0.8 µM): 0.946
- relative viability ([2]; first compound 2.53 µM): 0.994
- relative viability ([2]; first compound 8 µM): 0.98
- relative viability (Veliparib + Dasatinib; first compound 0.02 µM): 0.511
- relative viability (Veliparib + Dasatinib; first compound 0.06325 µM): 0.596
- relative viability (Veliparib + Dasatinib; first compound 0.2 µM): 0.532
- relative viability (Veliparib + Dasatinib; first compound 0.6325 µM): 0.547
- relative viability (Veliparib + Dasatinib; first compound 2 µM): 0.625
